Counter-ions that a name gives are not always drawn.
Assays:
Test in all cases: MIC by broth microdilution (antibacterial and synergistic activity)
Type in all cases: cell-based
[1] = tested on: K. pneumoniae clinical isolate (strain 3, SHV-1); conditions: Klebsiella pneumoniae; strain 3 (SHV-1); compound alone, no antibiotic; read-out: Antibacterial activity, MIC, inhibitor Alone
Method: (§1) Compounds of the present invention alone, avibactam (AVI) alone, relebactam (REL) alone, meropenem (MER) alone, imipenem (IMI) alone, and as a combination of compounds of the present invention, or avibactam or relebactam with test antibiotic (meropenem or imipenem) was tested for antimicrobial activity by determining minimum inhibitory concentration (MIC, mg/L) using the broth microdilution method according to the guidelines of the Clinical Laboratories and Standards Institute (“Methods for Dilution Antimicrobial Susceptibility Tests for Bacterial that Grow Aerobically”, Approved standard, 7th ed., Clinical and Laboratories Standards Institute (CLSI) Document M7-A8, Wayne, Pa., USA, 2009). Meropenem or imipenem as a test antibiotic compound was dissolved in DMSO, and then diluted in microbial growth medium (Mueller-Hinton Broth II, cation adjusted) resulting in a final concentration range of 0.031-64 mg/L in serial two-fold dilution. In all cases the final DMSO concentration was less than 0.5%. Bacteria were added to 96-well microtitre plates containing the serial two-fold dilutions of the compounds; the final cell density was approximately 5×10^5 colony forming units/mL (CFU/mL). Plates were incubated at 37° C. for 18-24 hours and read visually. The MIC, i.e. the lowest concentration of the test compound that inhibited visible growth of the bacteria, was recorded. The same assay conditions were used when the compounds of present invention alone, avibactam or relebactam alone (as a control), and as a combination of the present invention each compound, or avibactam or relebactam with test meropenem or imipenem antibiotic compound was tested for minimum inhibitory concentration (MIC, mg/L). While test meropenem or imipenem was serially diluted as described above, a constant concentration of avibactam, or relebactam or the present invention each compound of 4 mg/L was used.
(§2) Bacterial strains that were used to evaluate the antimicrobial activity using the MIC determination included but were not limited to E. coli clinical isolate (strain 1, TEM-1), E. coli 8739 (strain 2, CTX-M15), K. pneumoniae clinical isolate (strain 3, SHV-1), K. pneumoniae 700603 (strain 4, KPC-3, TEM-1), E. cloacae clinical isolate (strain 5, P99), E. cloacae 700323 (strain 6, AmpC), A. baumannii clinical isolate (strain 7, OXA-23, OXA-40), A. baumannii 19606 (strain 8, OXA-24), P. aeruginosa clinical isolate (strain 9, KPC-2), P. aeruginosa 9027 (strain 10, AmpC).

[2] = tested on: K. pneumoniae 700603 (strain 4, KPC-3, TEM-1); conditions: Klebsiella pneumoniae; strain 4 (KPC-3, TEM-1); compound alone, no antibiotic; read-out: Antibacterial activity, MIC, inhibitor Alone
Method: as §1, §2

[3] = tested on: A. baumannii clinical isolate (strain 7, OXA-23, OXA-40); conditions: Acinetobacter baumannii; strain 7 (OXA-23/40); compound alone, no antibiotic; read-out: Antibacterial activity, MIC, inhibitor Alone
Method: as §1, §2

[4] = tested on: A. baumannii 19606 (strain 8, OXA-24); conditions: Acinetobacter baumannii, read-out: Antibacterial activity, MIC, inhibitor Alone
Method: as §1, §2

[5] = tested on: E. cloacae clinical isolate (strain 5, P99); conditions: Enterobacter cloacae; strain 5 (P99); compound alone, no antibiotic; read-out: Antibacterial activity, MIC, inhibitor Alone
Method: as §1, §2

[6] = tested on: E. coli clinical isolate (strain 1, TEM-1); conditions: Escherichia coli; strain 1 (TEM-1); compound alone, no antibiotic; read-out: Antibacterial activity, MIC, inhibitor Alone
Method: as §1, §2

[7] = tested on: E. coli 8739 (strain 2, CTX-M15); conditions: Escherichia coli, read-out: Antibacterial activity, MIC, inhibitor Alone
Method: as §1, §2

[8] = tested on: E. cloacae 700323 (strain 6, AmpC); conditions: Enterobacter cloacae; strain 6 (AmpC); compound alone, no antibiotic; read-out: Antibacterial activity, MIC, inhibitor Alone
Method: as §1, §2

[9] = tested on: P. aeruginosa clinical isolate (strain 9, KPC-2); conditions: Pseudomonas aeruginosa; strain 9 (KPC-2); compound alone, no antibiotic; read-out: Antibacterial activity, MIC, inhibitor Alone
Method: as §1, §2

[10] = tested on: P. aeruginosa 9027 (strain 10, AmpC); conditions: Pseudomonas aeruginosa; strain 10 (AmpC); compound alone, no antibiotic; read-out: Antibacterial activity, MIC, inhibitor Alone
Method: as §1, §2

Measured: MIC

N=C(NS(=O)(=O)c1ccc(C(F)(F)F)cn1)[C@@H]1CC[C@@H]2CN1C(=O)N2OS(=O)(=O)O [Ex. 20, (2S,5R)-7-oxo-2-(N-((5-(trifluoromethyl)pyridin-2-yl)sulfonyl)carbamimidoyl)-1,6-diazabicyclo[3.2.1]octan-6-yl hydrogen sulfate]
> 64 µg/mL: all assays above

COc1ccc(S(=O)(=O)NC(=N)[C@@H]2CC[C@@H]3CN2C(=O)N3OS(=O)(=O)O)cn1 [Ex. 21, (2S,5R)-2-(N-((6-methoxypyridin-3-yl)sulfonyl)carbamimidoyl)-7-oxo-1,6-diazabicyclo[3.2.1]octan-6-yl hydrogen sulfate]
> 64 µg/mL: all assays above

COc1ccc(S(=O)(=O)NC(=N)[C@@H]2CC[C@@H]3CN2C(=O)N3OS(=O)(=O)O)nc1 [Ex. 22, (2S,5R)-2-(N-((5-methoxypyridin-2-yl)sulfonyl)carbamimidoyl)-7-oxo-1,6-diazabicyclo[3.2.1]octan-6-yl hydrogen sulfate]
> 64 µg/mL: all assays above

N=C(NS(=O)(=O)c1ccc(F)cn1)[C@@H]1CC[C@@H]2CN1C(=O)N2OS(=O)(=O)O [Ex. 23, (2S,5R)-2-(N-((5-fluoropyridin-2-yl)sulfonyl)carbamimidoyl)-7-oxo-1,6-diazabicyclo[3.2.1]octan-6-yl hydrogen sulfate]
> 64 µg/mL: all assays above

N=C(NS(=O)(=O)c1cnccn1)[C@@H]1CC[C@@H]2CN1C(=O)N2OS(=O)(=O)O [Ex. 24, (2S,5R)-7-oxo-2-(N-(pyrazin-2-ylsulfonyl)carbamimidoyl)-1,6-diazabicyclo[3.2.1]octan-6-yl hydrogen sulfate]
> 64 µg/mL: all assays above

O=C(NC1CCNCC1)[C@@H]1CC[C@@H]2CN1C(=O)N2OS(=O)(=O)O [REL, relebactam, reference compound]
> 64 µg/mL: all assays above
